Patent publication US7625917B2, “Thiolesters and uses thereof” (priority 1998, dated 2009)
Like-named read-outs stand apart in the source and are kept apart here.

Experiments:
[1] = system: CEM-SS cells; assay: cells; type: cell-based
Protocol: Agents Chemother. […] Briefly, cells are infected with HIV-1 RF (or other virus to be tested) in the presence of various dilutions of test compounds (thiolesters and controls). The cultures are incubated for seven days. […] The cell death is measured by XTT dye reduction. XTT is a soluble tetrazolium dye that measures mitochondrial energy output, similar to MTT. Positive controls using dextran sulfate (an attachment inhibitor) or 3′-Azido-2′-3′-dideoxythymidine, AZT (a reverse transcriptase inhibitor) are added to each assay. Individual assays are done in duplicate using a sister plate method.

[2] = system: HIV-1RF; assay: XTT cytoprotection assay (antiviral activity); type: cell-based; conditions: for EC50: read-out: EC50; for loss of antiviral activity of BITA vs disulfide form, fold decrease: from Table 2
From the text: One exemplary means to determine antiviral activity is with CEM-SS cells and virus (e.g., HIV-1RF) (MOI=0.01) using the XTT (2,3-bis[2-methoxy-4-nitro-5-sulfophenyl]-5-[(phenylamino)carbonyl]-2H-tetrazolium hydroxide) cytoprotection assay, as described by Rice (1993) PNAS 90:9721-9724, and Rice (1997) Antimicrob. Agents Chemother. 41:419-426. Briefly, cells are infected with HIV-1 RF (or other virus to be tested) in the presence of various dilutions of test compounds (thiolesters and controls). The cultures are incubated for seven days. During this time control cultures without protective compounds (i.e., compounds with anti-viral activity) replicate virus, induce syncytia, and result in about 90% cell death. The cell death is measured by XTT dye reduction. XTT is a soluble tetrazolium dye that measures mitochondrial energy output, similar to MTT. Positive controls using dextran sulfate (an attachment inhibitor) or 3′-Azido-2′-3′-dideoxythymidine, AZT (a reverse transcriptase inhibitor) are added to each assay. Individual assays are done in duplicate using a sister plate method.
Effective antiviral concentrations providing 50% cytoprotection (EC50), and cellular growth inhibitory concentrations causing 50% cytotoxicity (IC50) are calculated.

[3] = Table 1, 50% cytotoxicity, read-out: IC50
[4] = Table 2, 50% cytotoxicity, read-out: IC50

SMILES | EC50 ([2]; Table 1) [µM] | IC50 [1, 3] [µM] | also measured
CC(=O)NS(=O)(=O)c1ccc(-n2sc3ccccc3c2=O)cc1 [Compound 2 BITA, N-[4-(3-oxo-3H-benz[d]isothiazol-2-yl)phenylsulfonyl] acetamide] | – | – | IC50 ([1]; Homo sapiens, CEM-SS, Table 1, 50% cytotoxicity, read-out: IC50): 34 µM; EC50 ([2]; Human immunodeficiency virus 1, Table 1): 12.6 µM
CC(=O)NS(=O)(=O)c1ccc(NC(=O)c2ccccc2SSc2ccccc2C(=O)Nc2ccc(S(=O)(=O)NC(C)=O)cc2)cc1 [Compound 2 D, N,N′-(2,2′-dithiodibenzoyl)-bis-sulfacetamide] | 1.5 | > 200 | –
O=C(NS(=O)(=O)c1ccc(-n2sc3ccccc3c2=O)cc1)c1ccccc1 [Compound 3 BITA] | 9.3 | 49.5 | –
O=c1c2ccccc2sn1-c1ccc(S(=O)(=O)Nc2ccc(Cl)nn2)cc1 [Compound 4 BITA] | 7.1 | 19.2 | –
O=C(Nc1ccc(S(=O)(=O)Nc2ccc(Cl)nn2)cc1)c1ccccc1SSc1ccccc1C(=O)Nc1ccc(S(=O)(=O)Nc2ccc(Cl)nn2)cc1 [Compound 4 D] | 2.9 | 18.3 | –
O=c1c2ccccc2sn1-c1ccc(S(=O)(=O)Nc2ncccn2)cc1 [Compound 5 BITA] | 6.5 | 50.8 | –
COc1cc(NS(=O)(=O)c2ccc(-n3sc4ccccc4c3=O)cc2)nc(OC)n1 [Compound 6 BITA] | 7.6 | 56.6 | –
COc1ccnc(NS(=O)(=O)c2ccc(-n3sc4ccccc4c3=O)cc2)n1 [Compound 7 BITA] | 8.8 | 57.4 | –
COc1ccnc(NS(=O)(=O)c2ccc(NC(=O)c3ccccc3SSc3ccccc3C(=O)Nc3ccc(S(=O)(=O)Nc4nccc(OC)n4)cc3)cc2)n1 [Compound 7 D] | 4.2 | 56.7 | –
COc1cnc(NS(=O)(=O)c2ccc(-n3sc4ccccc4c3=O)cc2)nc1 [Compound 8 BITA] | 17.8 | 57.6 | –
Cc1cc(C)nc(NS(=O)(=O)c2ccc(-n3sc4ccccc4c3=O)cc2)n1 [Compound 9 BITA] | 6.9 | 17.1 | –
COc1ccc(NS(=O)(=O)c2ccc(-n3sc4ccccc4c3=O)cc2)nn1 [Compound 12 BITA] | 22.6 | 55.3 | –
O=c1c2ccccc2sn1-c1ccc(S(=O)(=O)Nc2cnc3ccccc3n2)cc1 [Compound 17 BITA] | 9.2 | 54.7 | –
Cc1cc(NS(=O)(=O)c2ccc(-n3sc4ccccc4c3=O)cc2)nc(C)n1 [Compound 19 BITA] | 6.5 | 39.7 | –
Cc1noc(NS(=O)(=O)c2ccc(-n3sc4ccccc4c3=O)cc2)c1C [Compound 20 BITA] | 12.8 | 39 | –
NC(N)=NS(=O)(=O)c1ccc(NC(=O)c2ccccc2SSc2ccccc2C(=O)Nc2ccc(S(=O)(=O)N=C(N)N)cc2)cc1 [Compound 21 D] | 111 | > 316 | –
NS(=O)(=O)c1ccc(NS(=O)(=O)c2ccc(-n3sc4ccccc4c3=O)cc2)cc1 [Compound 22 BITA] | 6.2 | 18.1 | –
NS(=O)(=O)c1ccc(Cn2sc3ccccc3c2=O)cc1 [Compound 23 BITA] | – | – | IC50 ([1]; read-out: toxicity / IC50): 53.7 µM; EC50 ([2]; Table 2): 13.8 µM; loss of antiviral activity of BITA vs disulfide form, fold decrease [2]: 42 fold
NS(=O)(=O)c1ccc(CCn2sc3ccccc3c2=O)cc1 [Compound 24 BITA] | – | – | IC50 [1, 4]: 45.5 µM; EC50 ([2]; Table 2): 2 µM; loss of antiviral activity of BITA vs disulfide form, fold decrease [2]: 5 fold
NS(=O)(=O)c1ccc(CCNC(=O)c2ccccc2SSc2ccccc2C(=O)NCCc2ccc(S(N)(=O)=O)cc2)cc1 [Compound 24 D, N,N′-(2,2′-dithiodibenzoyl)-bis-4-(2-aminoethyl)benzene-sulfonamide] | – | – | IC50 [1, 4]: 52.8 µM; EC50 ([2]; Table 2): 0.41 µM

More lines, in order of falling EC50 ([2]; Table 1), values ahead:

EC50 ([2]; Table 1) [µM] | SMILES | IC50 [1, 3] [µM] | also measured
4.2 | COc1ccc(NS(=O)(=O)c2ccc(NC(=O)c3ccccc3SSc3ccccc3C(=O)Nc3ccc(S(=O)(=O)Nc4ccc(OC)nn4)cc3)cc2)nn1 [Compound 12 D] | 53.8 | –
3.8 | O=C(NS(=O)(=O)c1ccc(NC(=O)c2ccccc2SSc2ccccc2C(=O)Nc2ccc(S(=O)(=O)NC(=O)c3ccccc3)cc2)cc1)c1ccccc1 [Compound 3 D] | 54.1 | –
2.5 | Cc1noc(NS(=O)(=O)c2ccc(NC(=O)c3ccccc3SSc3ccccc3C(=O)Nc3ccc(S(=O)(=O)Nc4onc(C)c4C)cc3)cc2)c1C [Compound 20 D] | 44.2 | –
2.3 | NS(=O)(=O)c1ccc(NS(=O)(=O)c2ccc(NC(=O)c3ccccc3SSc3ccccc3C(=O)Nc3ccc(S(=O)(=O)Nc4ccc(S(N)(=O)=O)cc4)cc3)cc2)cc1 [Compound 22 D] | – | IC50 ([1]; read-out: toxicity / IC50): 43 µM
2.1 | COc1cc(NS(=O)(=O)c2ccc(NC(=O)c3ccccc3SSc3ccccc3C(=O)Nc3ccc(S(=O)(=O)Nc4cc(OC)nc(OC)n4)cc3)cc2)nc(OC)n1 [Compound 6 D] | 52.5 | –
2.1 | COc1cnc(NS(=O)(=O)c2ccc(NC(=O)c3ccccc3SSc3ccccc3C(=O)Nc3ccc(S(=O)(=O)Nc4ncc(OC)cn4)cc3)cc2)nc1 [Compound 8 D] | 55.5 | –
2 | O=C(Nc1ccc(S(=O)(=O)Nc2ncccn2)cc1)c1ccccc1SSc1ccccc1C(=O)Nc1ccc(S(=O)(=O)Nc2ncccn2)cc1 [Compound 5 D] | 46.4 | –
1.9 | Cc1cc(NS(=O)(=O)c2ccc(NC(=O)c3ccccc3SSc3ccccc3C(=O)Nc3ccc(S(=O)(=O)Nc4cc(C)nc(C)n4)cc3)cc2)nc(C)n1 [Compound 19 D] | 18.2 | –
1.6 | Cc1cc(C)nc(NS(=O)(=O)c2ccc(NC(=O)c3ccccc3SSc3ccccc3C(=O)Nc3ccc(S(=O)(=O)Nc4nc(C)cc(C)n4)cc3)cc2)n1 [Compound 9 D] | 32.2 | –
0.72 | O=C(Nc1ccc(S(=O)(=O)Nc2cnc3ccccc3n2)cc1)c1ccccc1SSc1ccccc1C(=O)Nc1ccc(S(=O)(=O)Nc2cnc3ccccc3n2)cc1 [Compound 17 D] | 22.2 | –
